Results taken from patent US11702411B2, “Pyridine, pyrazine, and triazine compounds as allosteric SHP2 inhibitors” (Revolution Medicines, Inc., priority 2017, dated 2023).

The compounds below were run against SHP2 (Homo sapiens (Human), UniProt Q06124) (assay: SHP2 allosteric inhibition assay (DiFMUP prompt fluorescence, activating peptide)). Details: 0.2 nM SHP2, 0.5 μM activating peptide, DiFMUP substrate; read-out: SHP2 Allosteric IC50.
Type: biochemical
Description: Without wishing to be bound by theory, SHP is allosterically activated through binding of bis-tyrosyl-phosphorylated peptides to its Src Homology 2 (SH2) domains. The latter activation step leads to the release of the auto-inhibitory interface of SHP2, which in turn renders the SHP2 protein tyrosine phosphatase (PTP) active and available for substrate recognition and reaction catalysis. The catalytic activity of SHP2 was monitored using the surrogate substrate DiFMUP in a prompt fluorescence assay format.
The phosphatase reactions were performed at room temperature in 96-well black polystyrene plate, flat bottom, non-binding surface (Corning, Cat #3650) using a final reaction volume of 100 μL and the following assay buffer conditions: 50 mM HEPES, pH 7.2, 100 mM NaCl, 0.5 mM EDTA, 0.05% P-20, 1 mM DTT.
The inhibition of SHP2 by compounds of the present disclosure (concentrations varying from 0.00005-10 μM) was monitored using an assay in which 0.2 nM of SHP2 was incubated with 0.5 μM of Activating Peptide 1 (sequence: H2N-LN(pY)IDLDLV(dPEG8)LST(pY)ASINFQK-amide) or Activating Peptide 2 (sequence: H2N-LN(pY)AQLWHA(dPEG8)LTI(pY)ATIRRF-amide). After 30-60-minutes incubation at 25° C., the surrogate substrate DiFMUP (Invitrogen, Cat #D6567) was added to the reaction and activity was determined by a kinetic read using a microplate reader (Envision, Perkin-Elmer or Spectramax M5, Molecular Devices). The excitation and emission wavelengths were 340 nm and 450 nm, respectively. Initial rates were determined from a linear fit of the data, and the inhibitor dose response curves were analyzed using normalized IC50 regression curve fitting with control based normalization.

Compound | IC50 [nM]
C[C@@H]1OCC2(CCN(c3ncc(-c4ccc5nccnc5c4)nc3CO)CC2)[C@@H]1N [Compound 12, {3-[(3S,4S)-4-amino-3-methyl-2-oxa-8-azaspiro[4.5]decan-8-yl]-6-(quinoxalin-6-yl)pyrazin-2-yl}methanol] | > 500
C[C@@H]1OCC2(CCN(c3ncc(Sc4cccc(Cl)c4Cl)nc3CO)CC2)[C@@H]1N [Compound 30, {3-[(3S,4S)-4-amino-3-methyl-2-oxa-8-azaspiro[4.5]decan-8-yl]-6-[(2,3-dichlorophenyl)sulfanyl]pyrazin-2-yl}methanol] | ≤ 50
N[C@@H]1CCCC12CCN(c1ncc(-c3cccc(Cl)c3Cl)nc1C(F)F)CC2 [Compound 34, (1R)-8-[5-(2,3-dichlorophenyl)-3-(difluoromethyl)pyrazin-2-yl]-8-azaspiro[4.5]decan-1-amine] | 50 to 500
C[C@@H]1OCC2(CCN(c3ncc(-c4cc5[nH]ncc5cc4Cl)nc3CO)CC2)[C@@H]1N [Compound 14, {3-[(3S,4S)-4-amino-3-methyl-2-oxa-8-azaspiro[4.5]decan-8-yl]-6-(5-chloro-2H-indazol-6-yl)pyrazin-2-yl}methanol] | 50 to 500
C[C@@H]1OCC2(CCN(c3ncc(-c4cc5ccccc5n4C)nc3CO)CC2)[C@@H]1N [Compound 15, {3-[(3S,4S)-4-amino-3-methyl-2-oxa-8-azaspiro[4.5]decan-8-yl]-6-(1-methyl-1H-indol-2-yl)pyrazin-2-yl}methanol] | ≤ 50

Next, values leading:

IC50 [nM] | Compound
> 500 | COc1ccc(F)c(-c2cnc(N3CCC4(CC3)CO[C@@H](C)[C@H]4N)c(CO)n2)c1Cl [Compound 17, {3-[(3S,4S)-4-amino-3-methyl-2-oxa-8-azaspiro[4.5]decan-8-yl]-6-(2-chloro-6-fluoro-3-methoxyphenyl)pyrazin-2-yl}methanol]
50 to 500 | C[C@@H]1OCC2(CCN(c3ncc(-c4ccc5nccnc5c4Cl)nc3CO)CC2)[C@@H]1N [Compound 9, {3-[(3S,4S)-4-amino-3-methyl-2-oxa-8-azaspiro[4.5]decan-8-yl]-6-(5-chloroquinoxalin-6-yl)pyrazin-2-yl}methanol]
≤ 50 | C[C@@H]1OCC2(CCN(c3ncc(-c4cccc5cc[nH]c45)nc3CO)CC2)[C@@H]1N [Compound 11, {3-[(3S,4S)-4-amino-3-methyl-2-oxa-8-azaspiro[4.5]decan-8-yl]-6-(1H-indol-7-yl)pyrazin-2-yl}methanol]
≤ 50 | C[C@@H]1OCC2(CCN(c3ncc(Sc4ccnc(N5CC(O)C5)c4Cl)nc3CO)CC2)[C@@H]1N [Compound 29, 1-[4-({5-[(3S,4S)-4-amino-3-methyl-2-oxa-8-azaspiro[4.5]decan-8-yl]-6-(hydroxymethyl)pyrazin-2-yl}sulfanyl)-3-chloropyridin-2-yl]azetidin-3-ol]
≤ 50 | C[C@@H]1OCC2(CCN(c3ncc(Sc4ccnc(N)c4Cl)nc3CO)CC2)[C@@H]1N [Compound 31, {6-[(2-amino-3-chloropyridin-4-yl)sulfanyl]-3-[(3S,4S)-4-amino-3-methyl-2-oxa-8-azaspiro[4.5]decan-8-yl]pyrazin-2-yl}methanol]
